Experimental data: ChEMBL document CHEMBL4665813, “Antifungal polybrominated proxyphylline derivative induces Candida albicans calcineurin stress response in Galleria mellonella” (Bioorg Med Chem Lett, 2020)
pIC50: −log10 of the molar value. Active and inactive are the calls of the source. No cut-off for these calls is given here.

Key:
[1] = Inhibition of calcineurin phosphatase activity in human Jurkat cells by Western blot analysis; type: cell-based
[2] = Inhibition of calcineurin phosphatase activity (unknown origin); parameters: species or system Homo sapiens
Candida albicans [3] = test: Induction of apoptosis in Candida albicans harboring cnb1delta mutant at 20 uM; type: functional, organism-based
Candida albicans [4] = test: Reduction in Candida albicans SC5314 adhesion to epithelium expressing wild-type SAP9/10 at 5 uM; type: functional, organism-based
Candida albicans [5] = test: Reduction in Candida albicans adhesion to epithelium expressing SAP9/10 mutant relative to control; type: functional; parameters: scale not given: the % may be the effect or the level left
[6] = Toxicity in Galleria mellonella infected with Candida albicans harboring cnb1delta/CNB1 assessed as effect on melanization at 0.64 microg/mg pre-treated with compound for 1 hr followed by fungal infection by hematoxylin and eosin staining based analysis; conditions: dose 0.64 µg/mg
Candida albicans [7] = test: Induction of necrosis in Candida albicans by flow cytometry analysis; type: functional
Candida albicans [8] = test: Decrease in chitin level in Candida albicans harboring cnb1delta/CNB1 mutant by measuring staining index at 20 uM after 18 hrs by calcofluor White staining based flow cytometry analysis; type: functional
[9] = Toxicity in Galleria mellonella infected with Candida albicans CAI4 assessed as haemocyte aggregation in tracheal walls at 0.64 microg/mg infected with fungi followed by compound treatment for 1 hr by hematoxylin and eosin staining based analysis; conditions: dose 0.64 µg/mg
Candida albicans [10] = test: Antibiofilm activity against Candida albicans at 5 to 20 uM; type: functional, organism-based; conditions: dose microM 5-20
[11] = Toxicity in Galleria mellonella infected with Candida albicans harboring cnb1delta/CNB1 assessed as formation of nodules at 0.64 microg/mg infected with fungi followed by compound treatment for 1 hr by hematoxylin and eosin staining based analysis; conditions: dose 0.64 µg/mg
Vero [12] = test: Inhibition of calcineurin in Candida albicans CAI4 assessed as change in CNB1 expression measured during invasion of African green monkey Vero cells at 5 uM after 18 hrs by RT-qPCR analysis (reference value: -3.66); type: cell-based
[13] = Toxicity in Galleria mellonella infected with Candida albicans harboring cnb1delta/CNB1 assessed as effect on haemocyte aggregation at 0.64 microg/mg pre-treated with compound for 1 hr followed by fungal infection by hematoxylin and eosin staining based analysis
Candida albicans [14] = test: Reduction in Candida albicans SC5314 adhesion to epithelium expressing wild-type SAP9/10 at 20 uM; type: functional, organism-based
Candida albicans [15] = test: Inhibition of calcineurin catalytic activity in Candida albicans at 5 uM
Candida albicans [16] = test: Antifungal activity against Candida albicans harboring cnb1delta/CNB1 mutant infected in Galleria mellonella larvae assessed as increase in larvae survival at 0.64 ug/mg measured within 5 days; type: functional, organism-based; conditions: dose 0.64 µg/mg, time 5.0 day
Candida albicans [17] = test: Induction of cell membrane permeabilization in Candida albicans by flow cytometry analysis; type: functional, organism-based
Vero [18] = test: Inhibition of calcineurin in Candida albicans harboring sap9delta mutant assessed as change in CNB1 expression measured during invasion of African green monkey Vero cells at 5 uM after 18 hrs by RT-qPCR analysis (reference value: -4.39)
Candida albicans [19] = test: Antifungal activity against Candida albicans CAI4 infected in Galleria mellonella larvae assessed as increase in larvae survival at 0.64 ug/mg measured within 5 days; type: functional, organism-based; conditions: time 5.0 day
Vero [20] = test: Inhibition of calcineurin in Candida albicans harboring sap9/10delta mutant assessed as change in CNB1 expression measured during invasion of African green monkey Vero cells at 5 uM after 8 hrs by RT-qPCR analysis relative to control
Candida albicans [21] = test: Induction of apoptosis in wild type Candida albicans SC5314 at 20 uM; type: functional
Candida albicans [22] = test: Induction of apoptosis in Candida albicans at sub-MIC; type: functional, organism-based
Vero [23] = test: Inhibition of calcineurin in Candida albicans harboring sap9/10delta mutant assessed as change in CNB1 expression measured during invasion of African green monkey Vero cells at 5 uM after 18 hrs by RT-qPCR analysis (reference value: -1.67)

## C=CC[C@@H]1/C=C(\C)C[C@H](C)C[C@H](OC)[C@H]2O[C@@](O)(C(=O)C(=O)N3CCCC[C@H]3C(=O)O[C@H](/C(C)=C/[C@@H]3CC[C@@H](O)[C@H](OC)C3)[C@H](C)[C@@H](O)CC1=O)[C@H](C)C[C@@H]2OC [TACROLIMUS ANHYDROUS]
[1]
  pIC50: 8.70
[2]
  pIC50: 9.40

## CC(Cn1cnc2c1c(=O)n(C)c(=O)n2C)OCc1cn(CCCn2nc3c(Br)c(Br)c(Br)c(Br)c3n2)nn1 (stereo not drawn)
Candida albicans [3]
  Activity: Active
Candida albicans [4]
  Activity: inactive
Candida albicans [5]
  Activity: 100%
[6]
  Activity: Non-Toxic
Candida albicans [7]
  Activity: Dose-dependent effect
Candida albicans [8]
  Activity: Active
[9]
  Activity: Toxic
Candida albicans [10]
  Activity: Active
[11]
  Activity: Non-Toxic
Vero [12]
  fold change (FC): -2.98
[13]
  Activity: Non-Toxic
Candida albicans [14]
  Activity: Active
Candida albicans [15]
  inhibition: Active
Candida albicans [16]
  Activity: Active
Candida albicans [17]
  Activity: Dose-dependent effect
Vero [18]
  fold change (FC): 0.24
Candida albicans [19]
  Activity: Active
Vero [20]
  fold change (FC): -2.38
Candida albicans [21]
  Activity: Active
Candida albicans [22]
  Activity: Active
Vero [23]
  fold change (FC): -4.52
